Data published in patent publication US9730949B2, “Angiotensin converting enzyme inhibitors for treating optic neuropathy or congenital optic atrophy” (priority 2012, dated 2017).

Legend:
Assay type in all cases: in vivo, human
[1] = test system: optic neuropathy or congenital optic atrophy; test: Other ACE inhibitors in patients with the same optic neuropathy or congenital optic atrophy as in Examples 1 to 5; details: patients as in Examples 1 to 5, similar procedures; present tense, no data
Experimental: Fosinoprilate, trandolaprilate, moexiprilate, quinaprilate, enalaprilate, perindoprilate and benazeprilate, as well as captopril and lisinopril are also tested in patients having the same optic neuropathy or congenital optic atrophy as in Examples 1 to 5 using similar procedures.

[2] = test system: toxication by ingestion of methyl alcohol; test: Visual acuity after treatment in patients with toxication by ingestion of methyl alcohol
Experimental: 2 patients (SR and WW) suffering from toxication by ingestion of methyl alcohol has bad visual acuity. FIG. 6 is a fluoangiography of SR prior to treatment. FIG. 7 is an optical coherence tomography scan of SR before treatment.
One patient was administered 2% (w/v) ramprilate in an eye drop formulation twice a day for 3 months, while the other patient was administered 2% (w/v) ramprilate in via an intravitreal injection ramiprilate in a quantity of 0.1 to 0.2 ml, which was injected once every 15 days for a total of three injections.

[3] = test system: bilateral asymmetric anterior optic neuropathy ischemia; test: Visual acuity after treatment in a patient with anterior optic neuropathy ischemia; details: patient three; intravitreal 2% (w/v), 0.1 to 0.2 ml, once every 15 days, three injections; 1/10 in both eyes prior to treatment
Experimental: FIGS. 3 and 4 show a fluoangiography of MM before treatment.
MM was administered an intravitreal injection of 2% (w/v) ramiprilate in a quantify of 0.1 to 0.2 ml, which was injected once every 15 days for a total of three injections. The visual acuity was then taken and was 5/10 for both eyes.

[4] = test system: dominant recessive congenital optic atrophy; test: Visual acuity after treatment in patients with dominant recessive congenital optic atrophy; details: 2 patients; eye drops 2% (w/v), 2 times per day for 3 months
Experimental: 2 patients that have dominant recessive congenital optic atrophy had bad visual acuity.
These 2 patients were treated with eye drops containing 2% (w/v) ramiprilate 2 times per day for a duration of 3 months.

[5] = test system: central artery occlusion of the retina; test: Visual acuity after treatment in patients with central artery occlusion of the retina
Experimental: FIG. 5 is a fundus photograph of patient four before treatment.
One was administered 2% (w/v) ramprilate in an eye drop formulation twice a day for 3 months, while the other was administered 2% (w/v) ramprilate in via an intravitreal injection ramiprilate in a quantity of 0.1 to 0.2 ml, which was injected once every 15 days for a total of three injections.

[6] = test system: Leber's optic neuropathy; test: Visual acuity after treatment in patients with Leber's optic neuropathy; details: intravitreal 2% (w/v), 0.1 to 0.2 ml, once every 15 days, three injections
Experimental: Patient two has Leber's optic neuropathy with a visual acuity of 1/20 in the right eye and zero in the left eye prior to treatment.
An intraocular injection (intravitreal) of 2% (w/v) ramiprilate in a quantify of 0.1 to 0.2 ml, which was injected once every 15 days for a total of three injections. The visual acuity was measured after this treatment. The results of 2/10 in the right eye and 1/20 in the left eye were achieved,
Patient one has Leber's optic neuropathy and had only bright perceptions in two eyes. Visual acuity was measured prior to treatment.
An intraocular injection (intravitreal) of 2% (w/v) ramiprilate in a quantity of 0.1 to 0.2 ml, which was infected once every 15 days for a total of three injections. The visual acuity was measured after this treatment. The visual acuity was 2/10 for both eyes.

Row | Structure (SMILES) | visual acuity [1] | further results
1 | O=C(O)[C@@H]1C[C@@H](C2CCCCC2)CN1C(=O)CP(=O)(O)CCCCc1ccccc1 [Fosinoprilate, fosinoprilate] | improvement in visual acuity | –
2 | C[C@H](N[C@@H](CCc1ccccc1)C(=O)O)C(=O)N1CCC[C@H]1C(=O)O [enalaprilate] | improvement in visual acuity | –
3 | C[C@H](N[C@@H](CCc1ccccc1)C(=O)O)C(=O)N1Cc2ccccc2C[C@H]1C(=O)O [quinaprilate] | improvement in visual acuity | –
4 | C[C@H](N[C@@H](CCc1ccccc1)C(=O)O)C(=O)N1[C@H](C(=O)O)C[C@H]2CCCC[C@@H]21 [trandolaprilate] | improvement in visual acuity | –
5 | CC(NC(CCc1ccccc1)C(=O)O)C(=O)N1C(C(=O)O)CC2CCCC21 (stereo not drawn) [ramiprilate] | – | vision as indicated by visual acuity ([2]; one patient (beta), eye drop formulation 2% (w/v) twice a day for 3 months): improvement in vision; vision as indicated by visual acuity ([2]; other patient (beta), intravitreal 2% (w/v), 0.1 to 0.2 ml, once every 15 days, three injections): improvement in vision; visual acuity, both eyes, after treatment [3]: 5/10; vision as indicated by visual acuity [4]: greatly improved; vision as indicated by visual acuity ([5]; one patient (alpha), eye drop formulation 2% (w/v) twice a day for 3 months): improvement in vision; vision as indicated by visual acuity ([5]; other patient (alpha), intravitreal 2% (w/v), 0.1 to 0.2 ml, once every 15 days, three injections): improvement in vision; visual acuity, both eyes, after treatment ([6]; patient one, only bright perceptions in two eyes before): 2/10; visual acuity, right eye, after treatment ([6]; patient two, 1/20 prior to treatment): 2/10; visual acuity, left eye, after treatment ([6]; patient two, zero prior to treatment): 1/20
6 | C[C@H](CS)C(=O)N1CCC[C@H]1C(=O)O [captopril] | improvement in visual acuity | –
7 | O=C(O)CN1C(=O)[C@@H](N[C@@H](CCc2ccccc2)C(=O)O)CCc2ccccc21 [benazeprilate] | improvement in visual acuity | –
8 | NCCCC[C@H](N[C@@H](CCc1ccccc1)C(=O)O)C(=O)N1CCC[C@H]1C(=O)O [lisinopril] | improvement in visual acuity | –
9 | CCC[C@H](N[C@@H](C)C(=O)N1[C@H](C(=O)O)C[C@@H]2CCCC[C@@H]21)C(=O)O [perindoprilate] | improvement in visual acuity | –
10 | COc1cc2c(cc1OC)CN(C(=O)[C@H](C)N[C@@H](CCc1ccccc1)C(=O)O)[C@H](C(=O)O)C2 [moexiprilate] | improvement in visual acuity | –
